Results: patent publication US20240132513A1, “BENZAZEPINE DERIVATIVES, COMPOSITIONS, AND METHODS FOR TREATING COGNITIVE IMPAIRMENT” (AGENEBIO, INC., priority 2022, published 2024)
pKi: −log10 of the molar value. Read-outs that look alike come from different tables or passages of the source. Blank lines part the entries; values can stand above or below the molecule they belong to.

How the values were obtained:
GABAA R (α5β2γ2) = target: T1, GABAA R (α5β2γ2) (Homo sapiens, UniProt P18507+P31644); assay: Positive allosteric modulator activity: potentiation of EC20 GABA current in oocytes; type: cell-based
T1 construct: expressed in transfected cells
Description: On day 1, 1 ng/32 nL of GABAA α5β2γ2 cDNA was injected into one oocyte. Test starts on day 2. The cDNA injected to the oocytes was a mix of alpha, beta and gamma, their ratio is 1:1:10 (by weight) and the total weight of the mixed 3 subunits to be injected in one oocyte was 1 ng in 32 nl volume. The injected oocytes can also be tested on day 3. In such case, the cDNA amount injected to the oocytes should be reduced by 20%.
Compounds of the present disclosure were tested using the following procedures.
8 oocytes were placed in 8 chambers of OpusXpress and superfused with Modified Barth's Saline (MBS) at 3 mL/min. Glass electrodes back-filled with 3M KCl (0.5-3 megaohms) were used. Membrane potential of oocytes was voltage-clamped at −60 mV. • 2).
Control Test (Diazepam or Methyl 3,5-Diphenylpyridazine-4-Carboxylate) • 1). New oocytes was used to run new test. • 2). […] Oocytes were washed with MBS for 5-10 min. • 4). […] Itest was divided by IGABA to obtain potentiation (%).
Test Compounds at Multiple Doses • 1). Repeat the above steps 1), 2) and 3) in the control test. • 2). […] Divide Itest by IGABA to obtain potentiation (%). • 3). Discard all tested oocytes, new oocytes were used and the above steps 1) and 2) were repeated to test second concentration of the same compound. Each oocyte was used for only one concentration test for a single test compound. The steps were repeated for other test compounds.

α5β3γ2 GABAA R = α5β3γ2 GABAA R (Homo sapiens, UniProt P18507+P31644); assay: Binding activity on GABAA R: inhibition of [3H]Ro15-1788 binding, α5 containing receptor
Procedure, shortened: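 Displacement of [3H]Ro15-1788 (flumazenil) measured at 4 °C over 1 h using 0.2 mg/ml membrane protein from Ltk cells carrying α5β3γ2 GABAA receptors, expression induced with 0.5 μM dexamethasone for 1 day; buffer pH 7.4 KH2PO4/EDTA/KCl. 10 μM diazepam defined nonspecific binding; filter-trapped radioactivity counted, in triplicate.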

[1] = read-out: GABA α5 Functional Data: potentiation, @ 100 nM, EC20 GABA, ranges of the column heads
[2] = read-out: GABA α5 Functional Data: potentiation
[3] = ranges of the column heads, [3H]Ro15-1788, Ltk cell membranes

α5β3γ2 GABAA R, sequence (P31644 32-462): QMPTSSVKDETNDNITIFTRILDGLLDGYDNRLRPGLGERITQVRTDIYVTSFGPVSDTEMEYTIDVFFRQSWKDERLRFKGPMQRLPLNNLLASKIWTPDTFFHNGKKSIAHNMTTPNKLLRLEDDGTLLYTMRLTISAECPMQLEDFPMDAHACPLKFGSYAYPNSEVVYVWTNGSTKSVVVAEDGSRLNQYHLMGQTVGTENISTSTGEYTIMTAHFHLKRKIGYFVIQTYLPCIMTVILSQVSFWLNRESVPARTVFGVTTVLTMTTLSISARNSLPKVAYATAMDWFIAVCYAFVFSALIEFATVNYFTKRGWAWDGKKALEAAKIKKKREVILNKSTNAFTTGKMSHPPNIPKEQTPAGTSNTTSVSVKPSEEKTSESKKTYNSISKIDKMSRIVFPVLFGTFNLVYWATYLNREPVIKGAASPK
α5β3γ2 GABAA R, sequence (P28472 26-473 partner): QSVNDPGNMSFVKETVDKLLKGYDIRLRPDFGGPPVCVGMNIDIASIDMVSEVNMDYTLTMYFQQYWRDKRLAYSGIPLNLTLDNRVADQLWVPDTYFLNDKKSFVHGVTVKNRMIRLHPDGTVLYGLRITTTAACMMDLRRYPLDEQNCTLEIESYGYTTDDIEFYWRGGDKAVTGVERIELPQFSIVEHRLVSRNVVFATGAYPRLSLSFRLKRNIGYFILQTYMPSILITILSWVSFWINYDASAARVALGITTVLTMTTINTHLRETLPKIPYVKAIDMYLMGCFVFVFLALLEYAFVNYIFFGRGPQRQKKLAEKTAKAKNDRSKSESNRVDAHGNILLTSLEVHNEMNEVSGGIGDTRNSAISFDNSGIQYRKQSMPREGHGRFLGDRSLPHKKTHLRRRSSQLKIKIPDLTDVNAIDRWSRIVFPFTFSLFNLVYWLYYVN
α5β3γ2 GABAA R, sequence (P18507 40-475): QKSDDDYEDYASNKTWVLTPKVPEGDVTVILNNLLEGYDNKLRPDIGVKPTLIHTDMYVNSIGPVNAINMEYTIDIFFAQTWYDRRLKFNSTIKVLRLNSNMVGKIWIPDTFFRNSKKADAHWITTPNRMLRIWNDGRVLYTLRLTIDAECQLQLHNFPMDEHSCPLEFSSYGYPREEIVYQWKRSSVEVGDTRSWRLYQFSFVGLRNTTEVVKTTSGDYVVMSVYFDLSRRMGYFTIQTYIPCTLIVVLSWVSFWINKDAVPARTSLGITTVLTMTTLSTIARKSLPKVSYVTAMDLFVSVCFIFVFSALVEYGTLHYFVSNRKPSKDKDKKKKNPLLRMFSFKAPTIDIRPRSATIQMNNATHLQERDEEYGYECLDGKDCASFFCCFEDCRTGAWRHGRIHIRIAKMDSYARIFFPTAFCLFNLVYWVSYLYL
T1 sequence (P31644 32-462): as the sequence (P31644 32-462) above
T1 sequence (P47870 25-512 partner limits assumed): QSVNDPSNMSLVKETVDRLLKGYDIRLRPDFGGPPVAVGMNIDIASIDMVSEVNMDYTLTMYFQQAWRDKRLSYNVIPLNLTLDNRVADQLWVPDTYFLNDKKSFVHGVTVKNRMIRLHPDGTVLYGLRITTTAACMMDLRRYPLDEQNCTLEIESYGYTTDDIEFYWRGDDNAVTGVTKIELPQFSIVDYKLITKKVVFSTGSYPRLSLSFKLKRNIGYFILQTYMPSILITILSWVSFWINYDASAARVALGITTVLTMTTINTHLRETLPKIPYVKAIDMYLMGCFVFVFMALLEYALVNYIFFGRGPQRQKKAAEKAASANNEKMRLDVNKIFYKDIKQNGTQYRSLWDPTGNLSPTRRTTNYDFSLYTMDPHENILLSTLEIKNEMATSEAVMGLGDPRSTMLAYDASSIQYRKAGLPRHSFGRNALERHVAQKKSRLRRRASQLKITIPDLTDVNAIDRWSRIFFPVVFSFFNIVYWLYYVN
T1 sequence (P18507 40-475): as the sequence (P18507 40-475) above

SMILES: Clc1ccc2c(c1)-c1nn(CC3CCCO3)cc1Cc1c(-c3cnn(Cc4ccccc4)c3)ncn1-2 (stereo not shown) [Compound 230]
activation at 0.1 µM (GABAA R (α5β2γ2); [1]): 5 to 20%
pKi (α5β3γ2 GABAA R): > 7.00

SMILES: Clc1ccc2c(c1)-c1nn(CC3CC3)cc1Cc1c(-c3nc(C4CC4)no3)ncn1-2 [Compound 129]
activation at 0.1 µM (GABAA R (α5β2γ2); [1]): 20 to 50%
pKi (α5β3γ2 GABAA R): > 7.00

SMILES: CC(C)c1noc(-c2ncn3c2Cc2cn(CCN(C)C)nc2-c2cc(Cl)ccc2-3)n1 [Compound 112]
activation at 0.1 µM (GABAA R (α5β2γ2); [1]): 5 to 20%
pKi (α5β3γ2 GABAA R): > 7.00

SMILES: Clc1ccc2c(c1)-c1[nH]ncc1Cc1c(-c3nc(C4CCCCC4)no3)ncn1-2 [Compound 123]
activation at 0.1 µM (GABAA R (α5β2γ2); [1]): 5 to 20%
pKi (α5β3γ2 GABAA R): > 7.00

activation at 0.1 µM (GABAA R (α5β2γ2); [2]): 20 to 50%
pKi (α5β3γ2 GABAA R; [3]): > 7.00
SMILES: CCn1cc2c(n1)-c1cc(Cl)ccc1-n1cnc(-c3nc(C4CCOC4)no3)c1C2 (stereo not shown) [Compound 192]

SMILES: COc1ccc2c(c1)-c1nn(CC3CCOC3)cc1Cc1c(-c3nc(C4CC4)no3)ncn1-2 (stereo not shown) [Compound 168]
activation at 0.1 µM (GABAA R (α5β2γ2); [1]): 20 to 50%
pKi (α5β3γ2 GABAA R): > 7.00

SMILES: COc1ccc2c(c1)-c1nn(CC3CCCO3)cc1Cc1c(-c3noc(C4COC4)n3)ncn1-2 (stereo not shown) [Compound 294]
activation at 0.1 µM (GABAA R (α5β2γ2); [1]): > 50%
pKi (α5β3γ2 GABAA R): > 7.00

SMILES: Cn1cc2c(n1)-c1cc(Cl)ccc1-n1cnc(-c3cnn(Cc4cccnc4)c3)c1C2 [Compound 208]
activation at 0.1 µM (GABAA R (α5β2γ2); [1]): 5 to 20%
pKi (α5β3γ2 GABAA R): > 7.00

SMILES: Cn1cc2c(n1)-c1cc(Cl)ccc1-n1cnc(-c3cnn(Cc4ccccc4)c3)c1C2 [Compound 163]
activation at 0.1 µM (GABAA R (α5β2γ2); [1]): 5 to 20%
pKi (α5β3γ2 GABAA R): > 7.00

SMILES: COc1ccc2c(c1)-c1nn(CC3CC3)cc1Cc1c(-c3nc(C4CC4)no3)ncn1-2 [Compound 171]
activation at 0.1 µM (GABAA R (α5β2γ2); [1]): 5 to 20%
pKi (α5β3γ2 GABAA R): > 7.00

SMILES: CCn1cc2c(n1)-c1cc(OC)ccc1-n1cnc(-c3nc(C(C)C)no3)c1C2 [Compound 151]
activation at 0.1 µM (GABAA R (α5β2γ2); [1]): 5 to 20%
pKi (α5β3γ2 GABAA R): > 7.00

SMILES: COc1ccc2c(c1)-c1nn(C)cc1Cc1c(-c3noc([C@@H]4CCCO4)n3)ncn1-2 [Compound 259]
activation at 0.1 µM (GABAA R (α5β2γ2); [1]): 5 to 20%
pKi (α5β3γ2 GABAA R): > 7.00

activation at 0.1 µM (GABAA R (α5β2γ2); [2]): > 50%
pKi (α5β3γ2 GABAA R; [3]): > 7.00
SMILES: COc1ccc2c(c1)-c1c(cnn1C)Cc1c(-c3noc(COCC(F)(F)F)n3)ncn1-2 [Compound 184]

SMILES: Cn1cc2c(n1)-c1cc(Cl)ccc1-n1cnc(-c3nc(C(C)(C)C)no3)c1C2 [Compound 113]
activation at 0.1 µM (GABAA R (α5β2γ2); [1]): 20 to 50%
pKi (α5β3γ2 GABAA R): > 7.00

SMILES: COCCn1cc2c(n1)-c1cc(OC)ccc1-n1cnc(-c3noc(COCC(F)(F)F)n3)c1C2 [Compound 313]
activation at 0.1 µM (GABAA R (α5β2γ2); [1]): 5 to 20%
pKi (α5β3γ2 GABAA R): > 7.00

SMILES: COc1ccc2c(c1)-c1nn(C)cc1Cc1c(-c3nc([C@H]4CCOC4)no3)ncn1-2 [Compound 252]
activation at 0.1 µM (GABAA R (α5β2γ2); [1]): 20 to 50%
pKi (α5β3γ2 GABAA R): > 7.00

SMILES: CCn1cc2c(n1)-c1cc(Cl)ccc1-n1cnc(-c3noc(C4COCCO4)n3)c1C2 (stereo not shown) [Compound 195]
activation at 0.1 µM (GABAA R (α5β2γ2); [1]): 5 to 20%
pKi (α5β3γ2 GABAA R): > 7.00

activation at 0.1 µM (GABAA R (α5β2γ2); [2]): 20 to 50%
pKi (α5β3γ2 GABAA R; [3]): > 7.00
SMILES: COc1ccc2c(c1)-c1nn(CC3CCOC3)cc1Cc1c(-c3ncc(C)o3)ncn1-2 (stereo not shown) [Compound 287]

SMILES: COc1ccc2c(c1)-c1nn(C)cc1Cc1c(-c3noc(COCC(F)(F)F)n3)ncn1-2 [Compound 183]
activation at 0.1 µM (GABAA R (α5β2γ2); [1]): > 50%
pKi (α5β3γ2 GABAA R): > 7.00

SMILES: CCn1cc2c(n1)-c1cc(Cl)ccc1-n1cnc(C3=N[C@H](C(C)C)CO3)c1C2 [Compound 177]
activation at 0.1 µM (GABAA R (α5β2γ2); [1]): 5 to 20%
pKi (α5β3γ2 GABAA R): > 7.00

SMILES: COc1ccc(Cn2ncc3c2-c2cc(OC)ccc2-n2cnc(-c4noc(COCC(F)(F)F)n4)c2C3)cc1 [Compound 173]
activation at 0.1 µM (GABAA R (α5β2γ2); [1]): 5 to 20%
pKi (α5β3γ2 GABAA R): > 7.00

SMILES: COc1ccc2c(c1)-c1nn(Cc3ccc(F)cc3)cc1Cc1c(-c3nc(C)no3)ncn1-2 [Compound 23]
activation at 0.1 µM (GABAA R (α5β2γ2); [1]): 5 to 20%
pKi (α5β3γ2 GABAA R): > 7.00

SMILES: Clc1ccc2c(c1)-c1[nH]ncc1Cc1c(-c3nc(C4CCCC4)no3)ncn1-2 [Compound 115]
activation at 0.1 µM (GABAA R (α5β2γ2); [1]): 5 to 20%
pKi (α5β3γ2 GABAA R): > 7.00
